# Laboratory results as given in BindingDB's records for doi:10.7270/Q2M32T6M (Vanderbilt Screening Center for GPCRs, Ion Channels and …, 2009).
# Non-standard residues stand in square brackets, D forms with d. Residues, ends and D or L forms follow the SMILES beside them. ξ: configuration not given here. *: point of attachment. ξF = NC(Cc1ccccc1)C(=O)O; Cbz = O=C(OCc1ccccc1)*
# Molecular target: T1, Solute carrier family 12 member 5 (Homo sapiens, UniProt Q9H2X9)
# T1 sequence (Q9H2X9 whole entry): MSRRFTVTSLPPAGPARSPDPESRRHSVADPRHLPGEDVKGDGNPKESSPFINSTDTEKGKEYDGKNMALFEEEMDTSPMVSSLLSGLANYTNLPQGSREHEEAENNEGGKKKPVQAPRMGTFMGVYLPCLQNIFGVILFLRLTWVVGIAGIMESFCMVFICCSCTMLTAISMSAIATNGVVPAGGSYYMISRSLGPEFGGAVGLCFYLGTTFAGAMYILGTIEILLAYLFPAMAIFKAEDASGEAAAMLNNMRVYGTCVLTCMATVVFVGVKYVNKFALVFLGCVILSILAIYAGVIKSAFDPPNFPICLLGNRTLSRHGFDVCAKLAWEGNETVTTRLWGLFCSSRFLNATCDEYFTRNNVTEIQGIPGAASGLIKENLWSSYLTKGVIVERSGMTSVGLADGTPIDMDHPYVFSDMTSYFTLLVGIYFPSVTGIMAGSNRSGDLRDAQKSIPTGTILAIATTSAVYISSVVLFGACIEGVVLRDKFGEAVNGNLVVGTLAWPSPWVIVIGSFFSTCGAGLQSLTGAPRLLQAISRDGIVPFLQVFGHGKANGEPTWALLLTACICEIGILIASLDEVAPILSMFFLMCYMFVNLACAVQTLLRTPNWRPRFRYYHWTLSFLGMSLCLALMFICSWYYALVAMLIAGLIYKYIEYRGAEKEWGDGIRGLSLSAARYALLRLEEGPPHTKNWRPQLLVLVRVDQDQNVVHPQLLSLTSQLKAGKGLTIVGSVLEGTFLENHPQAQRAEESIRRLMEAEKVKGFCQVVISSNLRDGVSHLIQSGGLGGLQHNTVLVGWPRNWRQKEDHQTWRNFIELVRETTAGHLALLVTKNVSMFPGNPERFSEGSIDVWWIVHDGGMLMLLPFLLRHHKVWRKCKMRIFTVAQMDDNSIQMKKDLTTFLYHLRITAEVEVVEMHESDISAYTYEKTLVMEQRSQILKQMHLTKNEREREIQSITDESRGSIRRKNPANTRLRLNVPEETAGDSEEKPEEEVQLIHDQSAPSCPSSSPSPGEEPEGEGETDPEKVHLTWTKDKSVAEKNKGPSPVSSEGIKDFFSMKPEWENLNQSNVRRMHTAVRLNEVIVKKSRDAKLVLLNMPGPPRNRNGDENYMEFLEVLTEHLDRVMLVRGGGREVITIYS
# Assay: KCC2 modulator potency by thallium flux, dose response, cell-based, HEK293 KCC2, FluoZin-2 fluorescence (AID 1736)
# Settings: not given
row,EC50 [µM],Compound
1,5.52,O=C(NCCCCc1ccccc1)C1CC(c2ccccc2[N+](=O)[O-])=NO1 (stereo unspecified) [3-(2-nitrophenyl)-N-(4-phenylbutyl)-2-isoxazoline-5-carboxamide]
2,2.04,CCC(CC)NC(=O)CSc1nnc(-c2c[nH]c3ccccc23)o1 [MLS001017505]
3,27.3,"COCCN1C(=O)/C(=C/c2ccc(OCc3ccc(C(=O)O)cc3)c(OC)c2)S/C1=N/c1ccccc1 [4-[(2-methoxy-4-{[3-(2-methoxyethyl)-4-oxo-2-(phenylimino)-1,3-thiazolidin-5-ylidene]methyl}phenoxy)methyl]benzoic acid]"
4,7.39,"N#CC(C(=O)c1cccc(F)c1)c1nc2ccccc2s1 (stereo unspecified) [(2Z)-2-(3H-1,3-benzothiazol-2-ylidene)-3-(3-fluorophenyl)-3-keto-propionitrile]"
5,23.3,CCOc1ccc(C(CC(=O)O)NC(=O)C(Sc2ccccc2)c2ccccc2)cc1 (stereo unspecified) [3-(4-ethoxyphenyl)-3-[(2-phenyl-2-phenylsulfanyl-ethanoyl)amino]propanoic acid]
6,3.38,CNC(=O)/C(=C\C=C\c1ccccc1)NC(=O)c1ccc([N+](=O)[O-])cc1 [MLS000570424]
7,1640,CN1C(=O)/C(=C/c2ccccc2OCc2ccccc2)NC1=S [(5Z)-3-methyl-5-[(2-phenylmethoxyphenyl)methylidene]-2-sulfanylidene-4-imidazolidinone]
8,17.5,CC1Cc2ccccc2N1C(=O)CN(C)S(=O)(=O)c1cccc2cccnc12 (stereo unspecified) [MLS000523063]
9,6.49,O=C(CSc1ccccc1C(=O)NCc1ccccc1)NC12CC3CC(CC(C3)C1)C2
10,7.14,"O=C(NCc1ccc2c(c1)OCO2)c1ccc(COc2cc(Cl)ccc2Cl)o1 [5-[(2,5-dichlorophenoxy)methyl]-N-piperonyl-2-furamide]"
11,2.86,"O=C(CSc1nnc(Cc2ccccc2)o1)c1ccc(F)cc1 [1-(4-fluorophenyl)-2-[[5-(phenylmethyl)-1,3,4-oxadiazol-2-yl]sulfanyl]ethanone]"
12,20.6,Cc1nn2c(nc(O)c3ccccc32)c1C=O [MLS000565386]
13,5.41,CCOc1cc(S(=O)(=O)NCc2ccccc2)ccc1F [3-ethoxy-4-fluoranyl-N-(phenylmethyl)benzenesulfonamide]
14,47.1,"COc1cc(OC)c(C2=NOC(C(=O)NCCc3ccccc3)C2)cc1Cl (stereo unspecified) [3-(5-chloranyl-2,4-dimethoxy-phenyl)-N-(2-phenylethyl)-4,5-dihydro-1,2-oxazole-5-carboxamide]"
15,0.928,O=C(NNc1nc(-c2ccc(F)cc2)cs1)c1ccccc1 [MLS000763429]
16,2,O=C(CNC(=O)/C(=C/c1ccccc1)NC(=O)c1ccc(Br)cc1)OCc1ccccc1 [(phenylmethyl) 2-[[(Z)-2-[(4-bromophenyl)carbonylamino]-3-phenyl-prop-2-enoyl]amino]ethanoate]
17,4.93,Cn1c(C(=O)NCCCN2CCN(c3ccccc3F)CC2)cc2c(=O)n(C)c3ccccc3c21 [MLS000118127]
18,9.8,O=C(/C=C/c1ccco1)N1CCC(Cc2ccccc2)CC1 [(E)-1-(4-benzylpiperidin-1-yl)-3-(furan-2-yl)prop-2-en-1-one]
19,4.2,"O=C1Nc2ccc([N+](=O)[O-])cc2OC1CCN1CCN(Cc2ccccc2)CC1 (stereo unspecified) [2-[2-(4-benzylpiperazin-1-yl)ethyl]-7-nitro-4H-1,4-benzoxazin-3-one]"
20,0.761,Cc1ccc2oc(-c3ccc(C)c(NC(=S)NC(=O)c4cccs4)c3)nc2c1 [1-[2-Methyl-5-(5-methyl-benzooxazol-2-yl)-phenyl]-3-(thiophene-2-carbonyl)-thiourea]

row,EC50 [µM],Compound
1,3.88,"O=C(Nc1cccnc1)c1ccc(COc2cc(Cl)ccc2Cl)o1 [5-[(2,5-dichlorophenoxy)methyl]-N-(3-pyridinyl)-2-furancarboxamide]"
2,6.9,"Cc1onc(C(=O)N2CCN(Cc3ccccc3)CC2)c1[N+](=O)[O-] [(4-benzylpiperazin-1-yl)-(5-methyl-4-nitro-1,2-oxazol-3-yl)methanone]"
3,1.94,O=C(Cn1nc(-c2ccccc2)ccc1=O)NCc1ccc2c(c1)OCO2 [2-(6-keto-3-phenyl-pyridazin-1-yl)-N-piperonyl-acetamide]
4,11,"CCOc1ccc2nc(Sc3cc(O)n(-c4cccc(OC)c4)c3O)sc2c1 [3-(6-Ethoxy-benzothiazol-2-ylsulfanyl)-1-(3-methoxy-phenyl)-pyrrolidine-2,5-dione]"
5,10.6,CC[C@H](CO)Nc1nc(Nc2cccc(Cl)c2)c2ncn(C(C)C)c2n1 [(R)-2-(6-(3-chlorophenylamino)-9-isopropyl-9H-purin-2-ylamino)butan-1-ol]
6,1.06,O=C(CSc1ccc(-c2ccccc2)nn1)c1ccccc1 [1-phenyl-2-(6-phenylpyridazin-3-yl)sulfanyl-ethanone]
7,8.78,"CCCCCN1C/C=C\C(c2ccc(OC)cc2)N(Cc2ccc(F)cc2)C(=O)C1 (stereo unspecified) [(6Z)-1-amyl-4-(4-fluorobenzyl)-5-(4-methoxyphenyl)-5,8-dihydro-2H-1,4-diazocin-3-one]"
8,8.13,O=C(NC1CCCC1)C(c1ccncc1)N(Cc1ccco1)C(=O)c1ccc(-c2ccccc2)[nH]1 (stereo unspecified) [MLS000718066]
9,12,N#Cc1nc(-c2ccco2)oc1N1CCN(Cc2ccccc2)CC1 [2-(2-furanyl)-5-[4-(phenylmethyl)-1-piperazinyl]-4-oxazolecarbonitrile]
10,6.01,"CC1(CCc2ccccc2)NC(=O)N(Cc2nnc(-c3ccccc3Br)o2)C1=O (stereo unspecified) [3-[[5-(2-bromophenyl)-1,3,4-oxadiazol-2-yl]methyl]-5-methyl-5-(2-phenylethyl)imidazolidine-2,4-dione]"
11,6.08,Cn1nccc1C(=O)OCC(=O)Nc1nc(-c2ccccc2)cs1 [2-Methyl-2H-pyrazole-3-carboxylic acid (4-phenyl-thiazol-2-ylcarbamoyl)-methyl ester]
12,2.16,CCOC(=O)CNC(=O)C(Cc1ccccc1)NC(=O)OCc1ccccc1 (stereo unspecified) [2-[[1-oxo-3-phenyl-2-(phenylmethoxycarbonylamino)propyl]amino]acetic acid ethyl ester] (Cbz-[ξF]-Gly-OEt)
13,7.56,O=C(c1ccc(N2CCCCCC2)c([N+](=O)[O-])c1)N1CCc2ccccc21 [1-(4-azepan-1-yl-3-nitrobenzoyl)indoline]
14,15.2,CC1CCCCN1C(=O)CSc1nnc(-c2c[nH]c3ccccc23)o1 (stereo unspecified)
15,31.1,O=C(COC(=O)c1cc([N+](=O)[O-])ccc1NCCO)c1ccccc1 [2-(2-hydroxyethylamino)-5-nitro-benzoic acid phenacyl ester]
16,0.113,"CCc1ccc(Nc2nnc(SCc3cc(=O)n4ccsc4n3)s2)cc1 [7-[[5-(4-ethylanilino)-1,3,4-thiadiazol-2-yl]sulfanylmethyl]-[1,3]thiazolo[3,2-a]pyrimidin-5-one]"
17,0.283,"Sc1nnc(Cc2cccc3ccccc23)o1 [5-(1-naphthalenylmethyl)-3H-1,3,4-oxadiazole-2-thione]"
18,1.22,"Cc1ccc(Nc2nnc(SCC(=O)c3ccc(Br)s3)s2)c(C)c1 [1-(5-bromanylthiophen-2-yl)-2-[[5-[(2,4-dimethylphenyl)amino]-1,3,4-thiadiazol-2-yl]sulfanyl]ethanone]"
19,0.27,CN(CC(=O)N1CCN(Cc2ccccc2)CC1)S(=O)(=O)c1cccc2nsnc12 [MLS000674627]
20,8.18,"Cc1cc(C)c(C#N)c(N2CCN(Cc3ccccc3)CC2)n1 [2-(4-benzyl-1-piperazinyl)-4,6-dimethylnicotinonitrile]"

# Same assay, conditions: inactive by the depositor's call
row,EC50 [µM],Compound
1,25.1,"O=C(CSc1nc2cc(Cl)ccc2s1)Nc1cccc(S(=O)(=O)N2CCOCC2)c1 [2-[(5-chloranyl-1,3-benzothiazol-2-yl)sulfanyl]-N-(3-morpholin-4-ylsulfonylphenyl)ethanamide]"
2,16.7,S=c1nc(-c2ccc3c(c2)CCO3)cc[nH]1
3,6.31,C=CCN(c1ccc(OC)cc1)S(=O)(=O)c1ccc(Cl)c(C(=O)OCC(=O)NC2CC2)c1 [2-chloro-5-[(4-methoxyphenyl)-prop-2-enylsulfamoyl]benzoic acid [2-(cyclopropylamino)-2-oxoethyl] ester]
4,1.86,"N#Cc1nc(COc2ccccc2F)oc1NCc1ccc(F)cc1 [2-[(2-fluoranylphenoxy)methyl]-5-[(4-fluorophenyl)methylamino]-1,3-oxazole-4-carbonitrile]"
5,16.6,Cc1ccc(C=NNC(=S)Nc2cccc(S(=O)(=O)N(C)C)c2)o1
6,1.45,"N#C/C(=C\c1cn(-c2ccccc2)nc1-c1cccnc1)c1nnc2n1CCCCC2 [(E)-3-(1-phenyl-3-pyridin-3-yl-pyrazol-4-yl)-2-(6,7,8,9-tetrahydro-5H-[1,2,4]triazolo[4,3-a]azepin-3-yl)prop-2-enenitrile]"
